Laboratory results taken from PubChem BioAssay (NCI).
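All cell lines were grown in 96-well plates and treated with compound for 48 hours. Abbreviation: GI50, concentration required for 50% inhibition of growth. TGI marks complete inhibition of growth.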

How the values were obtained:
Assay in all cases: NCI anticancer screen, dose series, 48 h
786-0 renal = test system: 786-0 renal
A498 renal = test system: A498 renal
A549 NSCLC = test system: A549 NSCLC
ACHN renal = test system: ACHN renal
BT-549 breast = test system: BT-549 breast
CAKI-1 renal = test system: CAKI-1 renal
CCRF-CEM leukemia = test system: CCRF-CEM leukemia
COLO 205 colon = test system: COLO 205 colon
DU-145 prostate = test system: DU-145 prostate
EKVX NSCLC = test system: EKVX NSCLC
HCC-2998 colon = test system: HCC-2998 colon
HCT-116 colon = test system: HCT-116 colon
HCT-15 colon = test system: HCT-15 colon
HL-60(TB) leukemia = test system: HL-60(TB) leukemia
HOP-62 NSCLC = test system: HOP-62 NSCLC
HOP-92 NSCLC = test system: HOP-92 NSCLC
HS 578T breast = test system: HS 578T breast
HT29 colon = test system: HT29 colon
IGROV1 ovarian = test system: IGROV1 ovarian
K-562 leukemia = test system: K-562 leukemia
KM12 colon = test system: KM12 colon
LOX IMVI melanoma = test system: LOX IMVI melanoma
MALME-3M melanoma = test system: MALME-3M melanoma
MCF7 breast = test system: MCF7 breast
MDA-MB-231 breast = test system: MDA-MB-231 breast
MDA-MB-435 = test system: MDA-MB-435
MOLT-4 leukemia = test system: MOLT-4 leukemia
NCI-H23 lung = test system: NCI-H23 lung
NCI-H460 lung = test system: NCI-H460 lung
NCI-H522 lung = test system: NCI-H522 lung
NCI/ADR-RES ovarian = test system: NCI/ADR-RES ovarian
OVCAR-3 ovarian = test system: OVCAR-3 ovarian
OVCAR-4 ovarian = test system: OVCAR-4 ovarian
OVCAR-5 ovarian = test system: OVCAR-5 ovarian
OVCAR-8 ovarian = test system: OVCAR-8 ovarian
PC-3 prostate = test system: PC-3 prostate
RPMI-8226 leukemia = test system: RPMI-8226 leukemia
RXF 393 renal = test system: RXF 393 renal
SF-268 CNS = test system: SF-268 CNS
SF-295 CNS = test system: SF-295 CNS
SF-539 CNS = test system: SF-539 CNS
SK-MEL-2 melanoma = test system: SK-MEL-2 melanoma
SK-MEL-28 melanoma = test system: SK-MEL-28 melanoma
SK-MEL-5 melanoma = test system: SK-MEL-5 melanoma
SK-OV-3 ovarian = test system: SK-OV-3 ovarian
SN12C renal = test system: SN12C renal
SNB-19 CNS = test system: SNB-19 CNS
SNB-75 CNS = test system: SNB-75 CNS
SR leukemia = test system: SR leukemia
SW-620 colon = test system: SW-620 colon
T-47D breast = test system: T-47D breast
TK-10 renal = test system: TK-10 renal
U251 CNS = test system: U251 CNS
UACC-257 melanoma = test system: UACC-257 melanoma
UACC-62 melanoma = test system: UACC-62 melanoma
UO-31 renal = test system: UO-31 renal
M14 melanoma = test system: M14 melanoma
NCI-H226 lung = test system: NCI-H226 lung

## O=C(OCc1nc2nc(Cl)nc(N3CCOCC3)c2[nH]1)n1ccnc1
786-0 renal
  GI50: 1.84 µM
  TGI: 3.98 µM
A498 renal
  GI50: 2.9 µM
  TGI: 9.83 µM
A549 NSCLC
  GI50: 3.24 µM
  TGI: 12.9 µM
ACHN renal
  GI50: 1.12 µM
  TGI: 2.32 µM
BT-549 breast
  GI50: 2.49 µM
  TGI: 9.49 µM
CAKI-1 renal
  GI50: 1.21 µM
  TGI: 2.84 µM
CCRF-CEM leukemia
  GI50: 1.17 µM
  TGI: 6.92 µM
COLO 205 colon
  GI50: 1.65 µM
  TGI: 3.84 µM
DU-145 prostate
  GI50: 1.59 µM
  TGI: 3.18 µM
EKVX NSCLC
  GI50: 2.04 µM
  TGI: 4.66 µM
HCC-2998 colon
  GI50: 2.22 µM
  TGI: 4.16 µM
HCT-116 colon
  GI50: 0.65 µM
  TGI: 3.29 µM
HCT-15 colon
  GI50: 2.06 µM
  TGI: 6.45 µM
HL-60(TB) leukemia
  GI50: 1.51 µM
  TGI: 4.55 µM
HOP-62 NSCLC
  GI50: 1.64 µM
  TGI: 4.78 µM
HOP-92 NSCLC
  GI50: 1.17 µM
  TGI: 3.15 µM
HS 578T breast
  GI50: 1.96 µM
  TGI: 5.37 µM
HT29 colon
  GI50: 1.59 µM
  TGI: 4.33 µM
IGROV1 ovarian
  GI50: 1.32 µM
  TGI: 2.64 µM
K-562 leukemia
  GI50: 1.68 µM
  TGI: 8.1 µM
KM12 colon
  GI50: 1.88 µM
  TGI: 4.72 µM
LOX IMVI melanoma
  GI50: 0.72 µM
  TGI: 2.17 µM
MALME-3M melanoma
  GI50: 1.72 µM
  TGI: 3.22 µM
MCF7 breast
  GI50: 1.84 µM
  TGI: 4.91 µM
MDA-MB-231 breast
  GI50: 1.63 µM
  TGI: 3.38 µM
MDA-MB-435
  GI50: 1.32 µM
  TGI: 2.75 µM
MOLT-4 leukemia
  GI50: 2.29 µM
  TGI: 6.47 µM
NCI-H23 lung
  GI50: 2.41 µM
  TGI: 5.69 µM
NCI-H460 lung
  GI50: 1.86 µM
  TGI: 4.02 µM
NCI-H522 lung
  GI50: 1.71 µM
  TGI: 4.38 µM
NCI/ADR-RES ovarian
  GI50: 2.57 µM
  TGI: 8.84 µM
OVCAR-3 ovarian
  GI50: 1.29 µM
  TGI: 2.79 µM
OVCAR-4 ovarian
  GI50: 1.63 µM
  TGI: 3.38 µM
OVCAR-5 ovarian
  GI50: 1.52 µM
  TGI: 3.07 µM
OVCAR-8 ovarian
  GI50: 2.56 µM
  TGI: 11 µM
PC-3 prostate
  GI50: 1.69 µM
  TGI: 3.65 µM
RPMI-8226 leukemia
  GI50: 0.582 µM
  TGI: 3.32 µM
RXF 393 renal
  GI50: 1.61 µM
  TGI: 3.06 µM
SF-268 CNS
  GI50: 1.74 µM
  TGI: 3.6 µM
SF-295 CNS
  GI50: 10.5 µM
  TGI: 22.2 µM
SF-539 CNS
  GI50: 1.48 µM
  TGI: 2.82 µM
SK-MEL-2 melanoma
  GI50: 1.95 µM
  TGI: 4.51 µM
SK-MEL-28 melanoma
  GI50: 1.74 µM
  TGI: 3.24 µM
SK-MEL-5 melanoma
  GI50: 1.83 µM
  TGI: 3.35 µM
SK-OV-3 ovarian
  GI50: 3.4 µM
  TGI: 14.3 µM
SN12C renal
  GI50: 1.38 µM
  TGI: 2.76 µM
SNB-19 CNS
  GI50: 2.42 µM
  TGI: 6.46 µM
SNB-75 CNS
  GI50: 1.04 µM
  TGI: 3.49 µM
SR leukemia
  GI50: 1.09 µM
  TGI: 5.09 µM
SW-620 colon
  GI50: 1.5 µM
  TGI: 3.32 µM
T-47D breast
  GI50: 1.88 µM
  TGI: 4.48 µM
TK-10 renal
  GI50: 1.94 µM
  TGI: 4.05 µM
U251 CNS
  GI50: 1.96 µM
  TGI: 4.32 µM
UACC-257 melanoma
  GI50: 1.9 µM
  TGI: 3.94 µM
UACC-62 melanoma
  GI50: 1.55 µM
  TGI: 2.94 µM
UO-31 renal
  GI50: 1.19 µM
  TGI: 2.42 µM

## CC(=O)N1C(Nc2ccccc2)CCN1c1ccccc1 (stereo not given)
786-0 renal
  TGI: > 10 µM
A549 NSCLC
  TGI: > 10 µM
ACHN renal
  TGI: > 10 µM
BT-549 breast
  TGI: > 10 µM
CAKI-1 renal
  TGI: > 10 µM
CCRF-CEM leukemia
  TGI: > 10 µM
COLO 205 colon
  TGI: > 10 µM
DU-145 prostate
  TGI: > 10 µM
EKVX NSCLC
  TGI: > 10 µM
HCC-2998 colon
  TGI: > 10 µM
HCT-116 colon
  TGI: > 10 µM
HCT-15 colon
  TGI: > 10 µM
HL-60(TB) leukemia
  TGI: > 10 µM
HOP-62 NSCLC
  TGI: > 10 µM
HOP-92 NSCLC
  TGI: > 10 µM
HS 578T breast
  TGI: > 10 µM
HT29 colon
  TGI: > 10 µM
IGROV1 ovarian
  TGI: > 10 µM
K-562 leukemia
  TGI: > 10 µM
LOX IMVI melanoma
  TGI: > 10 µM
M14 melanoma
  TGI: > 10 µM
MALME-3M melanoma
  TGI: > 10 µM
MCF7 breast
  TGI: > 10 µM
MDA-MB-231 breast
  TGI: > 10 µM
MDA-MB-435
  TGI: > 10 µM
MOLT-4 leukemia
  TGI: > 10 µM
NCI-H226 lung
  TGI: > 10 µM
NCI-H23 lung
  TGI: > 10 µM
NCI-H460 lung
  TGI: > 10 µM
NCI-H522 lung
  TGI: > 10 µM
NCI/ADR-RES ovarian
  TGI: > 10 µM
OVCAR-3 ovarian
  TGI: > 10 µM
OVCAR-4 ovarian
  TGI: > 10 µM
OVCAR-5 ovarian
  TGI: > 10 µM
OVCAR-8 ovarian
  TGI: > 10 µM
PC-3 prostate
  TGI: > 10 µM
RPMI-8226 leukemia
  TGI: > 10 µM
RXF 393 renal
  TGI: > 10 µM
SF-268 CNS
  TGI: > 10 µM
SF-295 CNS
  TGI: > 10 µM
SF-539 CNS
  TGI: > 10 µM
SK-MEL-2 melanoma
  TGI: > 10 µM
SK-MEL-28 melanoma
  TGI: > 10 µM
SK-MEL-5 melanoma
  TGI: > 10 µM
SK-OV-3 ovarian
  TGI: > 10 µM
SN12C renal
  TGI: > 10 µM
SNB-19 CNS
  TGI: > 10 µM
SNB-75 CNS
  TGI: > 10 µM
SR leukemia
  TGI: > 10 µM
SW-620 colon
  TGI: > 10 µM
T-47D breast
  TGI: > 10 µM
TK-10 renal
  TGI: > 10 µM
UACC-257 melanoma
  TGI: > 10 µM
UO-31 renal
  TGI: > 10 µM

## COc1ccc(C2=C(Cl)C(=O)N(c3ccc(OC)cc3OC)C(=O)C2(Cl)Cl)cc1
786-0 renal
  TGI: 29 µM
A549 NSCLC
  TGI: > 100 µM
ACHN renal
  TGI: 29.1 µM
BT-549 breast
  TGI: 77.3 µM
CAKI-1 renal
  TGI: 25.2 µM
COLO 205 colon
  TGI: 39.4 µM
DU-145 prostate
  TGI: 31 µM
EKVX NSCLC
  TGI: 87.1 µM
HCT-116 colon
  TGI: 28.9 µM
HCT-15 colon
  TGI: 27.9 µM
HL-60(TB) leukemia
  TGI: 69.8 µM
HOP-62 NSCLC
  TGI: 36.9 µM
HOP-92 NSCLC
  TGI: 36.6 µM
HS 578T breast
  TGI: 16.4 µM
HT29 colon
  TGI: 38.4 µM
IGROV1 ovarian
  TGI: 44.3 µM
K-562 leukemia
  TGI: > 100 µM
KM12 colon
  TGI: 33.6 µM
LOX IMVI melanoma
  TGI: 30.8 µM
M14 melanoma
  TGI: 29.7 µM
MALME-3M melanoma
  TGI: 35.8 µM
MCF7 breast
  TGI: 64.7 µM
MDA-MB-231 breast
  TGI: 20.5 µM
MDA-MB-435
  TGI: 34.4 µM
MOLT-4 leukemia
  TGI: 74 µM
NCI-H226 lung
  TGI: 27.1 µM
NCI-H23 lung
  TGI: 31 µM
NCI-H460 lung
  TGI: > 100 µM
NCI-H522 lung
  TGI: 36.5 µM
NCI/ADR-RES ovarian
  TGI: 41.9 µM
OVCAR-3 ovarian
  TGI: 25 µM
OVCAR-4 ovarian
  TGI: 32.2 µM
OVCAR-5 ovarian
  TGI: 27.6 µM
OVCAR-8 ovarian
  TGI: 52.4 µM
PC-3 prostate
  TGI: 33.5 µM
RXF 393 renal
  TGI: 57 µM
SF-268 CNS
  TGI: 65.9 µM
SF-295 CNS
  TGI: 66.4 µM
SF-539 CNS
  TGI: 23.5 µM
SK-MEL-2 melanoma
  TGI: 63.6 µM
SK-MEL-28 melanoma
  TGI: 36.1 µM
SK-MEL-5 melanoma
  TGI: 28.1 µM
SK-OV-3 ovarian
  TGI: > 100 µM
SN12C renal
  TGI: 13.8 µM
SNB-19 CNS
  TGI: > 100 µM
SNB-75 CNS
  TGI: 90.3 µM
SR leukemia
  TGI: 36.4 µM
SW-620 colon
  TGI: 30.1 µM
T-47D breast
  TGI: 30.3 µM
TK-10 renal
  TGI: 37.7 µM
U251 CNS
  TGI: 30.2 µM
UACC-257 melanoma
  TGI: 39.3 µM
UACC-62 melanoma
  TGI: 28 µM
UO-31 renal
  TGI: 37.4 µM
